Experimental findings from article PMC7619385 (ACS infectious diseases, 2025) are described below.

Structures are written as SMILES. Like-named read-outs stand apart in the source and are kept apart here.

The target in this assay is T1, LmxCLK1 (Leishmania mexicana, UniProt E9AMP2).
T1 sequence (E9AMP2 1-422): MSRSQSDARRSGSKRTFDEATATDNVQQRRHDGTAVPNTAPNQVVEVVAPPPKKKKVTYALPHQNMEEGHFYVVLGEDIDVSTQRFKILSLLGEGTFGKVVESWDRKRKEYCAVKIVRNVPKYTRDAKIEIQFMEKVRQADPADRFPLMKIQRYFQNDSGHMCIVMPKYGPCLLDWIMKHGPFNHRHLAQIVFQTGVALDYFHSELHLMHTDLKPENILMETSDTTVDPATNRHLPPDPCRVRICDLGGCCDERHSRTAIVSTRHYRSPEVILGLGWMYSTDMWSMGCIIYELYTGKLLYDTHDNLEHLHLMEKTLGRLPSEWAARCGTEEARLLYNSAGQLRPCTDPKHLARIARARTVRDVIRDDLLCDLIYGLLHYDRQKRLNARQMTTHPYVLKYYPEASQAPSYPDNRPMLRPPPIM
In words: biochemical. In kind it is binding.

Where [1] appears, read: DSF, 10 µM compound, 2 µM LmxCLK1, Run 1.
Setting [2] is: DSF, 10 µM compound, 2 µM LmxCLK1, Run 2.
The mark [3] stands for this setting: DSF, 10 µM compound, 2 µM LmxCLK1, mean of two runs.
Setting [4] is: DSF, 10 µM compound, 2 µM LmxCLK1, Run 1, read-out: ΔTm Run 1.
Setting [5] is: DSF, 10 µM compound, 2 µM LmxCLK1, Run 2, read-out: ΔTm Run 2.
Setting [6] is: DSF, 10 µM compound, 2 µM LmxCLK1, mean of two runs, read-out: ΔTm Average.

Consider `CC(C)(C#N)c1ccc(N2C(=O)OCc3cnc4ccc(-c5cnc6ccccc6c5)cc4c32)cc1` [ETP-46464], for which the “ΔTm Run 1” value under setting [1] was determined as 0.3 °C. Under setting [2], the “ΔTm Run 2” value is -0.4 °C. Further, under setting [3], the “ΔTm Average” value is -0.1 °C.

On to `CO[C@H]1C[C@@H]2CC[C@@H](C)[C@@](O)(O2)C(=O)C(=O)N2CCCC[C@H]2C(=O)O[C@H]([C@H](C)C[C@@H]2CC[C@@H](OCCO)[C@H](OC)C2)CC(=O)[C@H](C)/C=C(\C)[C@@H](O)[C@@H](OC)C(=O)[C@H](C)C[C@H](C)/C=C/C=C/C=C/1C` [Everolimus (RAD001)], for which, under setting [1], the “ΔTm Run 1” value amounted to 0.2 °C. The “ΔTm Run 2” value under setting [2] was -0.2 °C. The “ΔTm Average” value under setting [3] was determined as 0.0 °C.

On to `CCCCCCCCc1ccc(CCC(N)(CO)CO)cc1.Cl` [Fingolimod (FTY720) HCl], for which the “ΔTm Run 1” value under setting [1] was 0.2 °C. For the same compound, the “ΔTm Run 2” value under setting [2] was -0.1 °C. Also, the “ΔTm Average” value under setting [3] stood at 0.1 °C.

Take `COc1cc2c(Oc3ccc(NC(=O)C4(C(=O)Nc5ccc(F)cc5)CC4)cc3F)ccnc2cc1OCCCN1CCOCC1` [Foretinib (GSK1363089)]: the “ΔTm Run 1” value under setting [1] stood at 0.4 °C. Moreover, under setting [2], the “ΔTm Run 2” value was -0.4 °C. The “ΔTm Average” value under setting [3] stood at 0.0 °C.

As to `CCNC(=O)Nc1ccc(-c2nc3c(c(N4CCOC[C@@H]4C)n2)CCN(C2COC2)C3)cc1` [GDC-0349], the shift in melting temperature (ΔTm) (commonly the shift of the melting midpoint relative to a reference) at 10 µM is -0.1 °C under setting [4], -0.1 °C under setting [5] and -0.1 °C under setting [6].

On to `OCCn1cc(-c2ccc3c(c2)CC/C3=N\O)c(-c2ccncc2)n1` [GDC-0879], for which the ΔTm at 10 µM runs as follows: under setting [4], 0 °C; under setting [5], -0.2 °C; under setting [6], -0.1 °C.

As to `CS(=O)(=O)N1CCN(Cc2cc3nc(-c4cccc5[nH]ncc45)nc(N4CCOCC4)c3s2)CC1` [GDC-0941], the ΔTm at 10 µM by setting is: under setting [4], 0.1 °C; under setting [5], 0 °C; under setting [6], 0.1 °C.

In the case of `Cc1c(CN2CCN(C(=O)[C@H](C)O)CC2)sc2c(N3CCOCC3)nc(-c3cnc(N)nc3)nc12` [GDC-0980 (RG7422)], the thermal shift (ΔTm) at 10 µM was 0.1 °C under setting [4], -0.1 °C under setting [5] and 0 °C under setting [6].

On to `CNc1nc(Nc2cn(C(C)(C)C#N)nc2C)ncc1C(F)(F)F` [GNE-0877], for which the ΔTm at 10 µM is, setting by setting: under setting [4], -0.1 °C; under setting [5], -0.2 °C; under setting [6], -0.1 °C.

On to `CC1=C(C(=O)Nc2cc3cn[nH]c3cc2F)C(c2ccc(C(F)(F)F)cc2)CC(=O)N1` (stereo not drawn) [GSK429286A], for which the shift in melting temperature (ΔTm) at 10 µM by setting is: under setting [4], 0.1 °C; under setting [5], 0.2 °C; under setting [6], 0.1 °C.

With `C[C@@H](Oc1cc(-n2cnc3ccc(CN4CCN(C)CC4)cc32)sc1C(N)=O)c1ccccc1C(F)(F)F` [GSK461364], the ΔTm at 10 µM under setting [4] is 0.6 °C, the ΔTm at 10 µM under setting [5] amounted to 0.1 °C and the ΔTm at 10 µM under setting [6] came to 0.4 °C.

For `CCn1c(-c2nonc2N)nc2c(C#CC(C)(C)O)ncc(OC[C@H]3CCCNC3)c21` [GSK690693], the ΔTm at 10 µM is, setting by setting: under setting [4], 0.1 °C; under setting [5], -0.3 °C; under setting [6], -0.1 °C.

Turning to `CNC(=O)c1c(F)cccc1Nc1nc(Nc2cc3c(cc2OC)CCN3C(=O)CN(C)C)nc2[nH]ccc12` [GSK1838705A], the “ΔTm Average” value is given as -0.2, the “ΔTm Run 1” value is reported as -0.1 and the “ΔTm Run 2” value is recorded as -0.3.

`CCc1cc(Nc2nccc(-c3c(-c4ccc(OC)c(C(=O)Nc5c(F)cccc5F)c4)nc4ccccn34)n2)c(OC)cc1N1CCC(N2CCN(S(C)(=O)=O)CC2)CC1` [GSK1904529A]: the ΔTm Average was 0.2 °C, the ΔTm Run 1 worked out at 0.2 °C and the ΔTm Run 2 amounted to 0.1 °C.

As for `COc1ncc(-c2ccc3nccc(-c4ccnnc4)c3c2)cc1NS(=O)(=O)c1ccc(F)cc1F` [GSK2126458 (GSK458)], the “ΔTm Run 1” value under setting [1] is -0.2 °C. In addition, under setting [2], the “ΔTm Run 2” value was -0.3 °C. The “ΔTm Average” value under setting [3] is -0.3 °C.

On to `CNc1nc(-c2ccc3c(N)n[nH]c3c2)cc(N2C[C@@H](C(=O)NC3CCCCC3)CC[C@H]2C)n1` [GSK2334470], for which the ΔTm at 10 µM runs as follows: under setting [4], 0.3 °C; under setting [5], -0.5 °C; under setting [6], -0.1 °C.

Consider `O=c1c(-c2ccc(O)cc2)coc2cc(O)cc(O)c12` [Genistein], for which the thermal shift (ΔTm) at 10 µM under setting [4] worked out at 0.2 °C, the ΔTm at 10 µM under setting [5] worked out at 0.3 °C and the ΔTm at 10 µM under setting [6] worked out at 0.2 °C.

For `CN1CCN(C2CCN(C(=O)Nc3cc(Oc4ccc(NC(=O)C5(C(=O)Nc6ccc(F)cc6)CC5)c(F)c4)ccn3)CC2)CC1` [Golvatinib (E7050)], the shift in melting temperature (ΔTm) at 10 µM is 0.6 °C (read-out: ΔTm Average), 0.5 °C (read-out: ΔTm Run 1) and 0.7 °C (read-out: ΔTm Run 2).

As to `Cl.Cl.O=S(=O)(NCCNC/C=C/c1ccc(Br)cc1)c1cccc2cnccc12` [H 89 2HCl], the “ΔTm Run 1” value under setting [1] was determined as 0.2 °C. In addition, the “ΔTm Run 2” value under setting [2] was -0.1 °C. For the same compound, the “ΔTm Average” value under setting [3] was determined as 0.0 °C.

Regarding `COc1ccc(S(=O)(=O)N(C(C)=O)c2ccccc2/C=C/c2cc[n+]([O-])cc2)cc1` [HMN-214], the shift in melting temperature (ΔTm) at 10 µM amounted to 0.4 °C under setting [4], 0.1 °C under setting [5] and 0.2 °C under setting [6].

In the case of `CCS(=O)(=O)Nc1ccc2c(c1)/C(=C(/Nc1ccc(CN3CCCCC3)cc1)c1ccccc1)C(=O)N2` [Hesperadin], the shift in melting temperature (ΔTm) at 10 µM came to 1.7 °C under setting [4], 1.3 °C under setting [5] and 1.5 °C under setting [6].

Regarding `C=CCc1ccc(O)c(-c2ccc(O)c(CC=C)c2)c1` [Honokiol], the ΔTm at 10 µM by setting is: under setting [4], -0.2 °C; under setting [5], 0.2 °C; under setting [6], 0 °C.

Consider `O=C(Nc1cc(C(F)(F)F)cc(C(F)(F)F)c1)c1cc(Cl)ccc1O` [IMD 0354], for which the ΔTm at 10 µM reads like this: under setting [4], 0.2 °C; under setting [5], -0.1 °C; under setting [6], 0 °C.

With `C=CC(=O)N1CCC[C@@H](n2nc(-c3ccc(Oc4ccccc4)cc3)c3c(N)ncnc32)C1` [Ibrutinib (PCI-32765)], the “ΔTm Run 1” value under setting [1] worked out at 0.2 °C. The “ΔTm Run 2” value under setting [2] is -0.2 °C. Further, the “ΔTm Average” value under setting [3] worked out at 0.0 °C.

For the compound `C#Cc1cccc(Nc2ncnc3cc4c(cc23)OCCOCCOCCO4)c1` [Icotinib], the ΔTm at 10 µM under setting [4] is -0.3 °C, the ΔTm at 10 µM under setting [5] was -0.2 °C and the ΔTm at 10 µM under setting [6] is -0.3 °C.

With `O=C1Nc2ccccc2/C1=C1/Nc2ccccc2C1=O` [Indirubin], the ΔTm at 10 µM is 0 °C (read-out: ΔTm Average), 0.1 °C (read-out: ΔTm Run 1) and -0.1 °C (read-out: ΔTm Run 2).

As to `Nc1nc(Nc2ccc(S(N)(=O)=O)cc2)nn1C(=O)c1c(F)cccc1F` [JNJ-7706621], the ΔTm at 10 µM under setting [4] turned out to be 1.4 °C, the ΔTm at 10 µM under setting [5] was determined as 1.7 °C and the ΔTm at 10 µM under setting [6] came out at 1.6 °C.

In the case of `Cn1cc(-c2ccc3nnc(C(F)(F)c4ccc5ncccc5c4)n3n2)cn1` [JNJ-38877605], the “ΔTm Average” value is -0.3, the “ΔTm Run 1” value is recorded as -0.1 and the “ΔTm Run 2” value was -0.4.

`N#Cc1c(NC(=O)c2cccc3ccccc23)sc2c1CCCC2` [JNK Inhibitor IX]: the “ΔTm Run 1” value under setting [1] amounted to 0.3 °C. The “ΔTm Run 2” value under setting [2] is -0.1 °C. For the same compound, under setting [3], the “ΔTm Average” value is 0.1 °C.

For `Cc1cc(NC(=O)c2cccc(NC(=O)/C=C/CN(C)C)c2)ccc1Nc1nccc(-c2cccnc2)n1` [JNK-IN-8], the ΔTm at 10 µM is 0.2 °C under setting [4], -0.5 °C under setting [5] and -0.1 °C under setting [6].

On to `CN([C@@H](Cc1ccc(OS(=O)(=O)c2cccc3cnccc23)cc1)C(=O)N1CCN(c2ccccc2)CC1)S(=O)(=O)c1cccc2cnccc12` [KN-62], for which the “ΔTm Average” value is recorded as -0.3, the “ΔTm Run 1” value is -0.4 and the “ΔTm Run 2” value is on record as -0.2.

In the case of `COc1ccc(S(=O)(=O)N(CCO)c2ccccc2CN(C)C/C=C/c2ccc(Cl)cc2)cc1.O=P(O)(O)O` [KN-93 Phosphate], the “ΔTm Run 1” value under setting [1] came to 0.1 °C. Further, under setting [2], the “ΔTm Run 2” value was -0.5 °C. For the same compound, under setting [3], the “ΔTm Average” value was -0.2 °C.

`CCCNC(=O)Nc1ccc(Oc2ncnc3cc(OC)c(OC)cc23)cc1Cl` [KRN 633]: the ΔTm at 10 µM under setting [4] stood at 0.1 °C, the shift in melting temperature (ΔTm) at 10 µM under setting [5] was -0.1 °C and the ΔTm at 10 µM under setting [6] is 0 °C.

For the compound `C[C@@H]1CN(CC(=O)Nc2ccc3c(c2)Cc2cccc(-c4cc(=O)cc(N5CCOCC5)o4)c2S3)C[C@H](C)O1` [KU-60019], the shift in melting temperature (ΔTm) at 10 µM under setting [4] is -0.1 °C, the ΔTm at 10 µM under setting [5] is -0.2 °C and the ΔTm at 10 µM under setting [6] was -0.1 °C.

Consider `COc1ccc(-c2ccc3c(N4CCOCC4)nc(N4C[C@@H](C)O[C@@H](C)C4)nc3n2)cc1CO` [KU-0063794], for which the shift in melting temperature (ΔTm) at 10 µM was determined as 0.1 °C under setting [4], 0.1 °C under setting [5] and 0.1 °C under setting [6].

`O=C(c1ccc(/C=C/c2n[nH]c3ccccc23)cc1)N1CCNCC1` [KW-2449]: the ΔTm at 10 µM runs as follows: under setting [4], 0.4 °C; under setting [5], 0.4 °C; under setting [6], 0.4 °C.

In the case of `O=C(Cc1ccc(-c2ccc(OCCN3CCOCC3)cc2)cn1)NCc1ccccc1` [KX2-391], the ΔTm Average was 0.1 °C, the ΔTm Run 1 worked out at 0.2 °C and the ΔTm Run 2 is 0 °C.

As for `COc1cc2nccc(Oc3ccc(NC(=O)Nc4ccc(F)cc4F)c(F)c3)c2cc1OC` [Ki8751], the “ΔTm Run 1” value under setting [1] came out at 0.0 °C. Under setting [2], the “ΔTm Run 2” value is -0.2 °C. Further, the “ΔTm Average” value under setting [3] was -0.1 °C.
